From patent US20060167098A1, “Method for the treatment of diseases linked to an accumulation of triglycerides and cholesterol” (Institut National De La Sante ET De LA Recherche Medicale …, priority 2003, published 2006)

What was measured:
Assay type in all cases: in vivo
[1] = Liver triglycerides in ob/ob mice, 6 weeks; conditions: 100 mg/kg/day 6 weeks, fasted 48 h
Experimental: Total lipids and triglycerides in the liver of animals were assessed according to a procedure partially reported by (Letteron P., Fromenty B., Terris B., Degott C., Pessayre D., 1996, J. Hepatol. 24 : 200-208). Briefly, after killing of the animals, livers were removed and homogenized in sterile water. Hepatic lipids were thus extracted by a mixture of chloroform and methanol (2/1; v/v). After removal of the aqueous phase, the organic phase (chloroform containing the lipids) was evaporated and the amount of lipids was determined by gravimetry. Lipids were subsequently resuspended in isopropanol (final concentration, ca. 10 mg/mL). After removal of the phopholipids by using aluminum hydroxide hydrate, triglycerides were determined colorimetrically by using periodate and the Nash's reagent (containing acetylacetone, ammonium acetate and isopropanol). The reaction generates diacetyldihydrolutidine which is assayed by spectrophotometry (λ=410 nm).
Liver triglycerides were assessed in ob/ob mice fed with a standard diet and receiving or not of 100 mg/kg/day of β-aminoisobutyric acid (BAIBA) in the drinking water during 6 weeks. Mice were 10 weeks old at the beginning of the experiment. These animals (7 controls and 10 treated with BAIBA) were different from those used for the determination of body fat by DEXA in the fed state (see above, paragraph I-d). At the end of the 6 weeks of treatment mice were submitted to a 48-hour period of fast At the end of this fasting period mice were killed for assessment of liver triglycerides. […] Indeed, liver triglycerides were reduced by 16 and 12%, respectively when the values were expressed as mg/whole liver or as mg/gram of lipids.

[2] = Plasma lipids in ob/ob mice, 6 weeks, 48-hour fast
Experimental: Plasma lipids (triglycerides, total cholesterol, phospholipids) were measured on an automatic analyser (Hitachi 717®). The commercial kits used to assess triglycerides, total cholesterol and phospholipids on this analyser were all from bioMérieux (references 61238, 61219 and 61491, respectively). Plasma non esterified fatty acids (NEFA) were assessed by using a commercial kit (Wako, reference 994-75409). Hepatic and plasma lipids were performed at the end of six weeks of treatment in animals that have been fasted for 48 hours. Triglycerides and HDL-cholesterol were also assessed after 2 months (in the fed state) or after 4 months of treatment (after an overnight fast).
Plasma lipids were assessed in ob/ob mice fed with a standard diet and receiving or not β-aminoisobutyric acid (BAIBA) in the drinking water during 6 weeks. These animals (7 controls and 10 treated with BAIBA) were those used for the determination of hepatic lipids (see above, paragraph II-b). At the end of the 6 weeks of treatment, mice were submitted to a 48-hour period of fast. Samples of blood were then collected (from the retroorbital sinus) for the assessment of plasma triglycerides, phospholipids and total cholesterol and mice were subsequently killed for assessment of liver triglycerides (see above). In this experiment, BAIBA decreased by 5, 23 and 19%, respectively plasma triglycerides, phospholipids and total cholesterol. The results are submitted in FIG. 7.

[3] = Body fat mass by DEXA in genetically obese ob/ob mice; conditions: 100 mg/kg/day
Excerpt: Six to 8 weeks old male (Crl:CD-1(ICR)BR) Swiss mice, and six to ten weeks old male RjOrl Swiss mice (i.e. lean mice) weighing 28 and 32 grams were purchased from Dépré (Saint Doulchard, France). Ten to 12 weeks old ob/ob male (C57BL/6-ob) mice (i.e. obese mice), weighing 40 to 44 grams were purchased from Janvier (Le-Genest-St-Isle, France). In one experiment, younger ob/ob mice (5-6 weeks old) weighing 25-26 grams were also studied. In genetically obese ob/ob mice, a mutation on the gene of leptin prevents the normal production of this hormone, thus increasing appetite and decreasing energy consumption (Friedman J. M., Halaas J. L., 1998, Nature 395 : 763-770). […] The animals were acclimatized for one to two weeks before the start of experiments.
D,L-β-Aminoisobutyric acid (BAIBA) was purchased from Sigma-Aldrich. BAIBA has been administered in drinking water at the dose of 100 mg/kg/day or 500 mg/kg/day for 6 weeks, 2 months or 4 months according to the experiments.
The in vivo determination of body fat mass in anesthetized mice has been performed by “DEXA” (Dual Energy X-ray Absorptiometry) (Pietriobelli A., Formica C., Wang Z., Heymsfield S. B., 1996, Am. J. Physiol. 271 (Endocrinol. Metab. 34): E941-E951)). […] It is noteworthy that DEXA also gives for each investigated animal its lean mass that is the total amount of water and proteins (in grams) in the body (excluding the head). Therefore, for a given animal, DEXA allows the determination of the percentage of body fat which is its body fat mass divided by the sum of its body lean and fat masses (fat mass/(lean mass+fat mass)). The “DEXA” apparatus was a Piximus® from Lunar Corporation (Madison, Wis.). Mice were anesthetized thanks to a mixture of xylazine and ketamine.
Procedure 1: the animals were not fasted before DEXA investigations. The first DEXA measurement was performed one day before the beginning of the investigation (T0). Afterwards, DEXA measurements have been respectively performed two weeks (T2) and six weeks (T6) after the beginning of the treatment. […]

For `CC(CN)C(=O)O` (racemic) [BAIBA, D,L-β-Aminoisobutyric acid], which “reduction of liver triglycerides (values as mg/gram of lipids)” value [1] is on record?
The value was 12%.

What about the “reduction of liver triglycerides (values as mg/whole liver)” value [1] of the same compound?
Its value is 16%.

And the liver triglycerides ([1]; p<0.01)?
The liver triglycerides was 625±14 mg/g of lipids.

What about the “decrease of plasma phospholipids” value [2] of the same compound?
The value was 23%.

What about the “decrease of plasma total cholesterol” value [2] of the same compound?
The value was 19%.

And the “decrease of plasma triglycerides” value [2]?
The value was 5%.

And the plasma triglycerides [2]?
Its plasma triglycerides is 1.32 ± 0.14 mmol/L.

What about the plasma phospholipids ([2]; p<0.01) of the same compound?
Its plasma phospholipids is 4.07 ± 0.26 mmol/L.

And the plasma total cholesterol ([2]; p<0.05)?
The plasma total cholesterol was 4.98 ± 0.34 mmol/L.

And the “gain of body fat” value ([3]; 10-12 weeks old ob/ob mice, first two weeks)?
The value was 4.65±0.35 grams.

And the “reduction of body fat” value ([3]; 10-12 weeks old ob/ob mice, first two weeks, not significant)?
The value was 11%.

And the “gain of body fat” value ([3]; ob/ob mice, T0-T6)?
Its value is 7.30±0.61 grams.
